US12545637B2, “Extrahepatic targeted cationic lipid compound with high efficiency and low toxicity and its composition” (BEIJING YOUCARE KECHUANG PHARMACEUTICAL TECHNOLOGY CO., LTD., priority 2023, dated 2026)
Values joined by “and” are separate entries in the source; they are usually repeats but may differ in a detail not shown here. Equal entries are not always repeated.

Tests used:
293T cells [1] = test: Cell transfection test of LNP formulation of eGFP-mRNA (optimization of preparation conditions); format: cell-based
Protocol: The cationic lipid compound YK-407 synthesized in Example 1 was dissolved in ethanol with DSPC (AVT (Shanghai) Pharmaceutical Technology Co., Ltd.), cholesterol (AVT (Shanghai) Pharmaceutical Technology Co., Ltd.) and DMG-PEG2000 according to a molar ratio of 49:10:39.5:1.5, respectively, to prepare an ethanol lipid solution. The ethanol lipid solution was quickly added to citrate buffer (pH=4-5) by ethanol injection method, and vortexed for 30s for later use. eGFP-mRNA was diluted in citrate buffer (pH=4-5) to give an aqueous mRNA solution. A certain volume of liposome solution and mRNA aqueous solution were used to prepare liposomes at weight ratios of total lipids to mRNA of 5:1, 10:1, 15:1, 20:1, 30:1 and 35:1, respectively. The mixtures were sonicated at 25° C. for 15 min (with an ultrasonic frequency of 40 kHz and an ultrasonic power of 800 W). The resulted liposomes were diluted to 10 times volume with PBS, and then ultrafiltered with a 300KDa ultrafiltration tube to remove ethanol. Then the volume was fixed to a certain volume with PBS to give an LNP formulation encapsulating eGFP-mRNA using cationic lipid YK-407/DSPC/cholesterol/DMG-PEG2000 (49:10:39.5:1.5 in molar percentage).
The LNP formulation encapsulating eGFP-mRNA was prepared according to the method in 1, wherein the molar ratios of cationic lipid YK-407 to neutral lipid DSPC were 1:1, 3:1, 3.5:1, 4:1, 4.5:1, 4.9:1, 10:1, 15:1 and 20:1.
The LNP formulation encapsulating eGFP-mRNA was prepared according to the method in 1, wherein the cationic lipid in the carrier was YK-407, and the molar ratios of the polymer-conjugated lipid DMG-PEG2000 to the carrier were 0.5%, 1.5%, 3.5%, 5%, 10% and 15%, respectively.
The LNP formulation encapsulating eGFP-mRNA was prepared according to the method in 1, wherein the molar ratios of cationic lipid YK-407, neutral lipid DSPC, structured lipid cholesterol and polymer-conjugated lipid DMG-PEG2000 were 75:5:15:5, 49:10:39.5:1.5, 45:10:43.5:1.5, 45:25:20:10, 40:10:48.5:1.5, 35:10:53.5:1.5 and 25:5:65:5, respectively.
(§1) Cell recovery and passage: 293T cells were recovered, cultured in a culture dish, and passaged to the required number of cells.
(§2) Seeding plate: The cells in the culture dish were digested and counted. Cells were spread in a 96-well plate at 10,000 cells per well and in a 12-well plate at 150,000 cells per well. Cells were cultured overnight until the cells adhered to the wall.
Cell transfection test: The LNP formulation containing 1.5 μg of eGFP-mRNA prepared in Example 2 (the cationic lipid in the carrier was YK-407) and the Lipofectamin 3000 formulation of eGFP-mRNA were added respectively to the cell culture medium of the 12-well plate, and further incubated for 24 hours. The transfection efficiency of different samples was then investigated according to the fluorescence intensity by observing with a fluorescence microscope.

293T cells [2] = test: Cell survival rate assay (CCK-8); format: cell-based
Protocol: as §1, §2
An LNP formulation containing 1.5 μg of Fluc-mRNA (prepared according to example 4, the carrier components of the LNP formulation were cationic lipid, neutral lipid, structured lipid and polymer-conjugated lipid at a molar ratio of 49:10:39.5:1.5, wherein the cationic lipid was listed in Table 1) and the formulation of Lipofectamine 3000 were added to the cell culture medium of a 96-well plate, and further cultivated for 24 hours. 10 μL of CCK-8 solution was then added to each well, and the culture plate was incubated in an incubator for 1 hour. The absorbance at 450 nm was measured by a microplate reader.

[3] = Particle size and polydispersity index (PDI) of lipid nanoparticles by dynamic light scattering; format: physicochemical
Protocol: The particle size and polydispersity index (PDI) were determined by dynamic light scattering using Malvern laser particle size analyzer.
10 μL of the liposome solution was weighed, diluted to 1 mL with RNase-free deionized water, and added to the sample pool. Each sample was measured in triplicate. The measurement conditions were: […] scattering angle, and 25° C.

293T cells [4] = test: Fluorescent detection of Fluc-mRNA (cell transfection efficiency of LNP formulations); format: cell-based
293T cells [5] = test: as above; format: cell-based; remark: listed apart in the source
Protocol: as §2
The corresponding reagents were added according to the instructions of the Gaussia Luciferase Assay Kit, and the fluorescence expression intensity of each well was detected by an IVIS fluorescence detection system.

CCCCCCCCC(CCCCCCCC)OC(=O)CCCCCN(CCO)CCN(CCO)CCCCCC(=O)OC(CCCCCCCC)CCCCCCCC [YK-401, di(heptadecan-9-yl) 6,6′-(ethane-1,2-diyl-bis((2-hydroxyethyl)azanediyl))dihexanoate]
transfection efficiency at different molar ratios of polymer-conjugated lipid DMG-PEG2000 to carrier (293T cells [1]; 0.5% to 15%): same results | transfection effect at different molar ratios of cationic lipid, neutral lipid, structured lipid and polymer-conjugated lipid (293T cells [1]; 75:5:15:5 to 25:5:65:5): same results | Cell survival rate (293T cells [2]; LNP with 1.5 μg Fluc-mRNA, 24 hours, CCK-8): 75.21% | cell survival rate higher than ALC-0315 (293T cells [2]; difference vs ALC-0315): 28.00% | cell survival rate higher than HIMA (293T cells [2]; difference vs HIMA (HHMA)): 10.94% | cell survival rate higher than Lipofectamine 3000 (293T cells [2]; difference vs Lipofectamine 3000): 53.55% | cell survival rate higher than SM-102 (293T cells [2]; difference vs SM-102): 4.31% and 7.31% | cell survival rate higher than YK-404 (293T cells [2]; difference vs YK-404): 33.09% | cell survival rate higher than YK-405 (293T cells [2]; difference vs YK-405): 33.35% | cell survival rate higher than YK-406 (293T cells [2]; difference vs YK-406): 50.25% | cell survival rate higher than YK-408 (293T cells [2]; difference vs YK-408): 32.90% | cell survival rate higher than YK-409 (293T cells [2]; difference vs YK-409): 29.10% | cell survival rate higher than YK-410 (293T cells [2]; difference vs YK-410): 30.29% | cell survival rate higher than YK-411 (293T cells [2]; difference vs YK-411): 58.88% | cell survival rate higher than YK-412 (293T cells [2]; difference vs YK-412): 21.07% | cell survival rate higher than YK-413 (293T cells [2]; difference vs YK-413): 28.01% | cell survival rate higher than YK-414 (293T cells [2]; difference vs YK-414): 46.46% | cell survival rate higher than YK-415 (293T cells [2]; difference vs YK-415): 14.05% | cell survival rate higher than YK-416 (293T cells [2]; difference vs YK-416): 34.24% | cell survival rate higher than YK-417 (293T cells [2]; difference vs YK-417): 53.87% | cell survival rate higher than YK-418 (293T cells [2]; difference vs YK-418): 54.16% | cell survival rate higher than YK-419 (293T cells [2]; difference vs YK-419): 36.29% | cell survival rate higher than YK-420 (293T cells [2]; difference vs YK-420): 39.62% | cell survival rate higher than YK-421 (293T cells [2]; difference vs YK-421): 39.50% | cell survival rate higher than YK-424 (293T cells [2]; difference vs YK-424): 47.28% | cell survival rate higher than compound 21 (293T cells [2]; difference vs compound 21): 7.37% | cell survival rate higher than compound 23 (293T cells [2]; difference vs compound 23): 6.10% | cytotoxicity reduced compared with YK-411 (293T cells [2]; rounded summary statement vs YK-411): 50% | PDI ([3]; LNP formulation of the cationic lipid, 25° C.): 17.7% | Particle size ([3]; LNP formulation of the cationic lipid/DSPC/cholesterol/DMG-PEG2000 49:10:39.5:1.5, 25° C.): 152 nm | RLU value, times that of ALC-0315 (293T cells [4]; ratio vs ALC-0315): 2.56 | RLU value, times that of HHMA (293T cells [4]; ratio vs HHMA): 2.70 | RLU value, times that of Lipofectamine 3000 (293T cells [4]; ratio vs Lipofectamine 3000): 4.67 | RLU value, times that of YK-009 (293T cells [4]; ratio vs YK-009): 1.09 | RLU value, times that of YK-405 (293T cells [4]; ratio vs YK-405): 1.75 | RLU value, times that of YK-406 (293T cells [4]; ratio vs YK-406): 71.69 | RLU value, times that of YK-408 (293T cells [4]; ratio vs YK-408): 3.81 | RLU value, times that of YK-409 (293T cells [4]; ratio vs YK-409): 8.37 | RLU value, times that of YK-410 (293T cells [4]; ratio vs YK-410): 13.75 | cell transfection efficiency, times that of YK-412 (293T cells [4]; ratio vs YK-412): 1.66 | cell transfection efficiency, times that of YK-413 (293T cells [4]; ratio vs YK-413): 4.07 | cell transfection efficiency, times that of YK-414 (293T cells [4]; ratio vs YK-414): 12.63 | cell transfection efficiency, times that of YK-416 (293T cells [4]; ratio vs YK-416): 1.41 | cell transfection efficiency, times that of YK-419 (293T cells [4]; ratio vs YK-419): 1.77 | cell transfection efficiency, times that of YK-420 (293T cells [4]; ratio vs YK-420): 1.40 | cell transfection efficiency, times that of YK-421 (293T cells [4]; ratio vs YK-421): 12.02 | Relative light unit (RLU) (293T cells [5]; LNP with 0.3 μg Fluc-mRNA, 96-well plate, 24 hours): 5609550 RLU | cell transfection efficiency, times that of YK-415 (293T cells [5]; ratio vs YK-415): 18.82 | cell transfection efficiency, times that of YK-417 (293T cells [5]; ratio vs YK-417): 47.83 | cell transfection efficiency, times that of YK-418 (293T cells [5]; ratio vs YK-418): 50.42 | cell transfection efficiency, times that of YK-424 (293T cells [5]; ratio vs YK-424): 1.95 | RLU value, times that of compound 21 (293T cells [5]; ratio vs compound 21): 3.71 | RLU value, times that of compound 23 (293T cells [5]; ratio vs compound 23): 4.00
